Assays:
Caco-2 cell line = assay: bi-directional permeability in Caco-2 cell line; format: in vitro ADME, human
Protocol: Metabolic stability was assessed in mouse and rat liver microsomes. Microsomes are subcellular fractions of hepatocytes and contain CYP450s, the predominant enzymes involved in first-pass metabolism.[66] […] A plasma protein binding assay was performed to assess the extent of compound binding to plasma proteins. This is key as only unbound compound is free to distribute and exert a pharmacological effect. […] To assess the potential for this sub-class of SSAs to be developed as drugs for oral administration, Caco-2 permeability assays were also performed, as a cellular model indicative of human intestinal permeability. […]
Sample analysis was by electrospray ionisation. […]
Bi-directional Permeability in Caco-2 Cell Line:
The bi-directional permeability in Caco-2 cell lines was determined by seeding cells onto an HTS Transwell plate. Cells were cultivated for 14-18 days in a cell culture incubator at 37 °C, 5 % CO2, 95 % relative humidity. Cell culture medium was replaced every other day. To assess monolayer integrity the transepithelial electrical resistance (TEER) across the monolayer was measured using Millicell Epithelial volt-ohm meter prior to assay and Lucifer yellow (LY) fluorescence measurement post-assay.
Test and control compounds were prepared in DMSO and diluted in Hank’s Balanced Saline […]
Solution (HBSS, pH 7.4) to a final concentration of 5 or 10 µM. Compound was added to the […]
donor compartment of the transwell plate for both apical to basolateral (A>B) and basolateral […]
to apical (B>A) measurements, with blank HBSS being added to the receiver compartment.
The transwell plate was then incubated at 37 °C, 5 % CO2 for 2 hours.

[1] = protein binding in human plasma by equilibrium dialysis; format: in vitro ADME
Protocol: Metabolic stability was assessed in mouse and rat liver microsomes. […] A plasma protein binding assay was performed to assess the extent of compound binding to plasma proteins. This is key as only unbound compound is free to distribute and exert a pharmacological effect. […] To assess the potential for this sub-class of SSAs to be developed as drugs for oral administration, Caco-2 permeability assays were also performed, as a cellular model indicative of human intestinal permeability. […] The […] MS/MS analysis. Samples were analysed using a Shimadzu liquid chromatography system coupled to a Triple Quad 6500+ mass spectrometry (AB Inc.) Separation of compounds was achieved using an HSS T3 column (50 x 2.1 mm) at a temperature of 40 °C and a binary mobile phase gradient at a flow rate of 0.7 mL/min. […] This was ramped to 95 % solvent B at 0.7 minutes, held for 0.5 minutes and then […] returned to initial conditions. Sample analysis was by electrospray ionisation. Protein Binding Measurements in Human Plasma by Using Equilibrium Dialysis Method : The fraction unbound in human plasma (P -KB, Ltd People's hospital of Shandong) were measured using 96-well Equilibrium Dialysis Plate (HTDialysis LLC, Gales Ferry, CT). Human plasma containing 5 μM test compound were dialysed against dialysis buffer (PBS) with initial samples taken to allow for assessment of plasma stability and recovery before the plate was incubated for 6 hours at 37 °C at 5 % CO2. Samples were removed at 6 hours, and all samples […] appropriate analytical internal standard. Samples were centrifuged at 3,220 g for 30 minutes (Eppendorf 5810R) to precipitate protein and enable sampling of supernatant prior to appropriate dilution for liquid chromatography mass -spectrometry (LC-MS/MS) analysis. Samples were analysed using a Shimadzu coupled to a triple Quad 6500 + (AB Inc., Illinois). Separation of analytes was achieved using a Xselect Hss T3 (2.1 x 50 mm) column at a temperature of 40 °C and a binary mobile phase gra dient at a flow rate of 0.8 mL/min. Initial […] formic acid in acetonitrile); this was ramped to 98 % B at 0.5 min, held for 0.4 min and then immediately returned to initial conditions. Sample analysis was by electrospray ionisation in positive ion mode. Bi-directional Permeability in Caco-2 Cell Line: The bi-directional permeability in Caco-2 cell lines was determined by seeding cells onto an HTS Transwell plate. Cells were cultivated for 14-18 days in a cell culture incubator at 37 °C, 5 % CO2, 95 % relative humidity. Cell culture medium was replaced every other day. To assess monolayer integrity the transepithelial electrical resistance (TEER) across the monolayer was measured using Millicell Epithelial volt-ohm meter prior to assay and Lucifer yellow (LY) fluorescence measurement post-assay. Test and control compounds were prepared in DMSO and diluted in Hank's Balanced Saline […] Compound was added to the donor compartment of the transwell plate for both apical to basolateral (A>B) and basolateral to apical (B>A) measurements, with blank HBSS being added to the receiver compartment. The transwell plate was then incubated at 37 °C, 5 % CO2 for 2 hours. 5

[2] = Caco-2, 5 or 10 µM, HBSS pH 7.4, 2 hours

SMILES	Efflux Ratio (Caco-2 cell line; Caco-2)	Recovery (%) AP-BL (Caco-2 cell line; Caco-2) [%]	Recovery (%) BL-AP (Caco-2 cell line; Caco-2) [%]	Papp (A-B) (Caco-2 cell line; [2])	Papp (B-A) (Caco-2 cell line; [2])	remaining at 6 h, 5 µM ([1]; human plasma, 5 µM, 37 °C) [%]	% Unbound ([1]; human, plasma) [%]	fraction unbound ([1]; human, plasma)
C[C@H]1O[C@@H](O[C@H]2[C@@H](O)C[C@H](O[C@H]3[C@@H](O)C[C@H](O[C@H]4CC[C@@]5(C)[C@H](CC[C@@H]6[C@@H]5C[C@@H](O)[C@]5(C)[C@@H](C7=CC(=O)OC7)CC[C@]65O)C4)O[C@@H]3C)O[C@@H]2C)C[C@H](O)[C@@H]1O [Digoxin, reference compound]	45.59	95.92	99.20	0.42 10-6, cm/s	18.74 10-6, cm/s			
CC(=O)N1CCN(c2ccc(OCC3COC(Cn4ccnc4)(c4ccc(Cl)cc4Cl)O3)cc2)CC1 (centres unmarked) [Ketoconazole, reference compound]						101	0.86	0.0086

Reference: PMC12645191, “Dicarboxylate and dicarboxylic acid appended supramolecular self-associating amphiphiles as antimicrobial agents against high priority bacterial pathogens” (Organic & Biomolecular Chemistry, 2025)
